The values that follow come from patent US7662814B2, “4-aminothieno[2,3-d]pyrimidine-6-carbonitrile derivatives as PDE7 inhibitors” (Laboratorios Almirall, S.A., priority 2003, dated 2010).

Bounds are passed on as bounds.

In general, melting point refers to the temperature, or range, at which the solid turns liquid. As for `CCC(CC)Nc1nc(-c2cc(OC)c(OC)c(OC)c2)nc2sc(C#N)c(C)c12` [Example 73, 4-[(1-Ethylpropyl)amino]-5-methyl-2-(3,4,5-trimethoxyphenyl)thieno[2,3-d]pyrimidine-6-carbonitrile], the melting point lay in the range of 226 to 228 °C.

`Cc1c(C#N)sc2nc(-c3ccncc3)nc(N3CCOCC3)c12` [Example 41, 5-Methyl-4-morpholin-4-yl-2-pyridin-4-ylthieno[2,3-d]pyrimidine-6-carbonitrile] gave a melting point of more than 250 °C. `CCCNc1nc(-c2ccc(OC)c(OC)c2)nc2sc(C#N)c(C)c12` [Example 47, 2-(3,4-Dimethoxyphenyl)-5-methyl-4-(propylamino)thieno[2,3-d]pyrimidine-6-carbonitrile] had a melting point of 179 to 181 °C. With `Cc1c(C#N)sc2nc(CCc3ccccc3)nc(NC3CCC3)c12` [Example 128, 4-(Cyclobutylamino)-5-methyl-2-(2-phenylethyl)thieno[2,3-d]pyrimidine-6-carbonitrile], the melting point fell in the range of 153 to 155 °C. `CCNc1nc(Cc2cc(OC)c(OC)c(OC)c2)nc2sc(C#N)c(C)c12` [Example 111, 4-(Ethylamino)-5-methyl-2-(3,4,5-trimethoxybenzyl)thieno[2,3-d]pyrimidine-6-carbonitrile] gave a melting point of 164 to 165 °C. `Cc1c(C#N)sc2nc(-c3ccc(Cl)cc3)nc(N3CCOCC3)c12` [Example 23, 2-(4-Chlorophenyl)-5-methyl-4-morpholin-4-ylthieno[2,3-d]pyrimidine-6-carbonitrile] registered a melting point of 205 to 207 °C.

As to `COc1cc(-c2nc(N3CCNC(C)C3)c3c(C)c(C#N)sc3n2)cc(OC)c1OC` (stereo not shown) [Example 83, 5-Methyl-4-(3-methylpiperazin-1-yl)-2-(3,4,5-trimethoxyphenyl)thieno[2,3-d]pyrimidine-6-carbonitrile], the melting point was in the range of 213 to 215 °C.

`COc1cc(-c2nc(N3CCOCC3)c3c(C)c(C#N)sc3n2)cc(OC)c1OC` [Example 51, 5-Methyl-4-morpholin-4-yl-2-(3,4,5-trimethoxy-phenyl)-thieno[2,3-d]pyrimidine-6-carbonitrile]: the melting point is more than 250 °C. `COc1cc(Cc2nc(NC(C)C)c3c(C)c(C#N)sc3n2)cc(OC)c1OC` [Example 113, 4-(Isopropylamino)-5-methyl-2-(3,4,5-trimethoxybenzyl)thieno[2,3-d]pyrimidine-6-carbonitrile] yielded a melting point of 143 to 147 °C. Molecule `COc1cc(-c2nc(NCC(C)C)c3c(C)c(C#N)sc3n2)cc(OC)c1OC` [Example 72, 4-(Isobutylamino)-5-methyl-2-(3,4,5-trimethoxyphenyl)thieno[2,3-d]pyrimidine-6-carbonitrile] had a melting point of 182 to 184 °C. As to `CCN(CC)c1nc(-c2ccncc2)nc2sc(C#N)c(C)c12` [Example 45, 4-(Diethylamino)-5-methyl-2-pyridin-4-ylthieno[2,3-d]pyrimidine-6-carbonitrile], the melting point fell in the range of 169 to 171 °C.

In turn, `CCN(C)c1nc(-c2ccc(C(=O)OC)cc2)nc2sc(C#N)c(C)c12` [Example 57] yielded a melting point of 125 to 128 °C. The result for `COc1cc(-c2nc(N(C)CCO)c3c(C)c(C#N)sc3n2)cc(OC)c1OC` [Example 52, 4-[(2-Hydroxy-ethyl)-methyl-amino]-5-methyl-2-(3,4,5-trimethoxy-phenyl)-thieno[2,3-d]pyrimidine-6-carbonitrile] reads 164 to 166 °C; that for `Cc1c(C#N)sc2nc(-c3ccc4c(c3)OCO4)nc(N(C)CCO)c12` [Example 43, 2-(1,3-Benzodioxol-5-yl)-4-[(2-hydroxyethyl)(methyl)amino]-5-methylthieno[2,3-d]pyrimidine-6-carbonitrile], 195 to 197 °C; that for `Cc1c(C#N)sc2nc(-c3ccc4c(c3)OCO4)nc(N3CCOCC3)c12` [Example 37, 2-(1,3-Benzodioxol-5-yl)-5-methyl-4-morpholin-4-ylthieno[2,3-d]pyrimidine-6-carbonitrile], 197 to 198 °C. The result for `CCNc1nc(Cc2ccc(OC)c(OC)c2)nc2sc(C#N)c(C)c12` [Example 95, 2-(3,4-Dimethoxybenzyl)-4-(ethylamino)-5-methylthieno[2,3-d]pyrimidine-6-carbonitrile] reads 125 to 126 °C; that for `CNc1nc(Cc2ccc(OC)c(OC)c2)nc2sc(C#N)c(C)c12` [Example 94, 2-(3,4-Dimethoxybenzyl)-5-methyl-4-(methylamino)thieno[2,3-d]pyrimidine-6-carbonitrile], 161 to 163 °C; that for `C=CCN(C)c1nc(-c2cc(OC)c(OC)c(OC)c2)nc2sc(C#N)c(C)c12` [Example 78, 4-[Allyl(methyl)amino]-5-methyl-2-(3,4,5-trimethoxyphenyl)thieno[2,3-d]pyrimidine-6-carbonitrile], 162 to 164 °C.

The molecule `COc1cc(-c2nc(N(C)CCN)c3c(C)c(C#N)sc3n2)cc(OC)c1OC` [Example 86, 4-[(2-Aminoethyl)(methyl)amino]-5-methyl-2-(3,4,5-trimethoxyphenyl)thieno[2,3-d]pyrimidine-6-carbonitrile] displayed a melting point of more than 290 °C.

With `COc1ccc(Cc2nc(NCCO)c3c(C)c(C#N)sc3n2)cc1OC` [Example 104, 2-(3,4-Dimethoxybenzyl)-4-[(2-hydroxyethyl)amino]-5-methylthieno[2,3-d]pyrimidine-6-carbonitrile], the melting point lay in the range of 149 to 151 °C. In turn, `CCN(CC)c1nc(-c2ccc(OC)cc2)nc2sc(C#N)c(C)c12` [Example 10, 4-(Diethylamino)-2-(4-methoxyphenyl)-5-methylthieno[2,3-d]pyrimidine-6-carbonitrile] registered a melting point of 154 to 156 °C.

Regarding `CCN(C)c1nc(-c2cc(OC)c(OC)c(OC)c2)nc2sc(C#N)c(C)c12` [Example 39, 4-[Ethyl(methyl)amino]-5-methyl-2-(3,4,5-trimethoxyphenyl)thieno[2,3-d]pyrimidine-6-carbonitrile], the melting point was in the range of 163 to 164 °C. The molecule `COc1cc(-c2nc(-n3nccn3)c3c(C)c(C#N)sc3n2)cc(OC)c1OC` [Example 90, 5-Methyl-4-(2H-1,2,3-triazol-2-yl)-2-(3,4,5-trimethoxyphenyl)thieno[2,3-d]pyrimidine-6-carbonitrile] gave a melting point of 208 to 210 °C. On to `COc1ccc(-c2nc(N(C)C)c3c(C)c(C#N)sc3n2)cc1` [Example 21, 4-(Dimethylamino)-2-(4-methoxyphenyl)-5-methylthieno[2,3-d]pyrimidine-6-carbonitrile], for which the melting point is 123 to 125 °C.

`COc1ccc(-c2nc(N(C)C)c3c(C)c(C#N)sc3n2)cc1OC` [Example 46, 2-(3,4-Dimethoxyphenyl)-4-(dimethylamino)-5-methylthieno[2,3-d]pyrimidine-6-carbonitrile] returned a melting point of 198 to 200 °C. As for `COc1cc(-c2nc(-n3cncn3)c3c(C)c(C#N)sc3n2)cc(OC)c1OC` [Example 91, 5-Methyl-4-(1H-1,2,4-triazol-1-yl)-2-(3,4,5-trimethoxyphenyl)thieno[2,3-d]pyrimidine-6-carbonitrile], the figure is 236 to 240 °C; as for `COc1cc(-c2nc(-n3cccn3)c3c(C)c(C#N)sc3n2)cc(OC)c1OC` [Example 88, 5-Methyl-4-(1H-pyrazol-1-yl)-2-(3,4,5-trimethoxyphenyl)thieno[2,3-d]pyrimidine-6-carbonitrile], 209 to 214 °C. As for `COc1ccc(-c2nc(N3CCN(C)CC3)c3c(C)c(C#N)sc3n2)cc1` [Example 9, 2-(4-Methoxyphenyl)-5-methyl-4-(4-methylpiperazin-1-yl)thieno[2,3-d]pyrimidine-6-carbonitrile], the figure is more than 250 °C; as for `COc1cc(-c2nc(-n3ccnc3)c3c(C)c(C#N)sc3n2)cc(OC)c1OC` [Example 89, 4-(1H-Imidazol-1-yl)-5-methyl-2-(3,4,5-trimethoxyphenyl)thieno[2,3-d]pyrimidine-6-carbonitrile], 238 to 240 °C; as for `COc1cc(-c2nc(NC(C)(C)C)c3c(C)c(C#N)sc3n2)cc(OC)c1OC` [Example 74, 4-(tert-Butylamino)-5-methyl-2-(3,4,5-trimethoxyphenyl)thieno[2,3-d]pyrimidine-6-carbonitrile], 195 to 197 °C.

`CCC(C)Nc1nc(-c2cc(OC)c(OC)c(OC)c2)nc2sc(C#N)c(C)c12` (stereo not shown) [Example 71, 4-(sec-Butylamino)-5-methyl-2-(3,4,5-trimethoxyphenyl)thieno[2,3-d]pyrimidine-6-carbonitrile] had a melting point of 91 to 93 °C. For `COc1cc(Cc2nc(NCC(C)C)c3c(C)c(C#N)sc3n2)cc(OC)c1OC` [Example 135, 4-(Isobutylamino)-5-methyl-2-(3,4,5-trimethoxybenzyl)thieno[2,3-d]pyrimidine-6-carbonitrile], the melting point lay in the range of 129 to 131 °C. As for `Cc1c(C#N)sc2nc(Cc3ccccc3)nc(N3CCOCC3)c12` [Example 58, 2-Benzyl-5-methyl-4-morpholin-4-yl-thieno[2,3-d]pyrimidine-6-carbonitrile], the figure is 88 to 90 °C; as for `CCN(CC)c1nc(-c2ccc(OC)c(OC)c2)nc2sc(C#N)c(C)c12` [Example 20, 4-(Diethylamino)-2-(3,4-dimethoxyphenyl)-5-methylthieno[2,3-d]pyrimidine-6-carbonitrile], 159 to 161 °C; as for `Cc1c(C#N)sc2nc(-c3ccc([N+](=O)[O-])cc3)nc(N3CCNCC3)c12` [Example 13, 5-Methyl-2-(4-nitrophenyl)-4-piperazin-1-ylthieno[2,3-d]pyrimidine-6-carbonitrile], 250 °C. As for `COc1cc(-c2nc(NC(C)C)c3c(C)c(C#N)sc3n2)cc(OC)c1OC` [Example 70, 4-(Isopropylamino)-5-methyl-2-(3,4,5-trimethoxyphenyl)thieno[2,3-d]pyrimidine-6-carbonitrile], the melting point was in the range of 191 to 193 °C.

In the case of `Cc1c(C#N)sc2nc(-c3ccc(C(F)(F)F)cc3)nc(N3CCN(C)CC3)c12` [Example 33, 5-Methyl-4-(4-methylpiperazin-1-yl)-2-[4-(trifluoromethyl)phenyl]thieno[2,3-d]pyrimidine-6-carbonitrile], the melting point lay within 187 to 189 °C.
